Results on twelve compounds are retold here after US11986471B2, “Compounds and methods of use” (Tango Therapeutics, Inc., priority 2018, dated 2024).

For assay [1], the target named is T1, PRMT5 (Homo sapiens, UniProt O14744).
T1 construct: purchased Viva (custom protein)
Briefly: PRMT5 IC50 assay in the presence of SAM as cofactor. It counts as biochemical. In short, it runs like this:
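Values reflect IC50 (μM) on human PRMT5 under three cofactor states. Selectivity is derived as the quotient of SAM-state Ki over MTA-state Ki, with each Ki obtained from its IC50.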

Another assay has as its system HAP1 MTAP-deleted. The experiment in a line: SDMA in-cell western assay, HAP1 MTAP-deleted cell line. The note with it: for IC50: Homo sapiens, HAP1 MTAP-deleted cell line; for MTAP Intact/Deleted Ratio: IC50 ratio HAP1 MTAP-intact / HAP1 MTAP-deleted. It counts as cell-based. The essentials:
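IC50 from SDMA in-cell western; HAP1 line lacking MTAP (null), paired isogenically with MTAP-intact HAP1 expressing endogenous MTAP.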

A further assay has as its system HAP1 MTAP-intact. Briefly: SDMA in-cell western assay, HAP1 MTAP-intact cell line. The format is cell-based. The note with it: Homo sapiens. The essentials: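 HAP1 isogenic pair: endogenous MTAP vs MTAP-null. Readout SDMA by in-cell western; IC50 per line. Ratio ≥3 fold = MTAP-selective.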
Assay [2] addresses T1, PRMT5. Briefly: PRMT5 IC50 assay in the presence of MTA as cofactor. It counts as biochemical. As to conditions: for IC50: PRMT5, MTA as cofactor. In short, it runs like this: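 Three cofactor conditions tested for PRMT5 inhibition: none, MTA and SAM, each giving an IC50. For conversion to Ki, the MTA-condition IC50 is divided by 13.5 and the SAM-condition IC50 by 1.5, and the two Ki values are expressed as a SAM/MTA ratio.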

Assay [3] concerns the target T1, PRMT5. Briefly: PRMT5 IC50 assay with no cofactor. The format is biochemical. In short, it runs like this:
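IC50 against PRMT5 determined with SAM as cofactor, with no cofactor, and with MTA as cofactor. Ki derived as IC50/1.5 for the SAM assay and IC50/13.5 for the MTA assay; SAM Ki to MTA Ki ratio also reported.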

Where [4] appears, read: ratio between Ki in the presence of SAM and Ki in the presence of MTA.
Setting [5] is: ratio between the Ki in the presence of SAM and the Ki in the presence of MTA.

T1 sequence (O14744 whole entry): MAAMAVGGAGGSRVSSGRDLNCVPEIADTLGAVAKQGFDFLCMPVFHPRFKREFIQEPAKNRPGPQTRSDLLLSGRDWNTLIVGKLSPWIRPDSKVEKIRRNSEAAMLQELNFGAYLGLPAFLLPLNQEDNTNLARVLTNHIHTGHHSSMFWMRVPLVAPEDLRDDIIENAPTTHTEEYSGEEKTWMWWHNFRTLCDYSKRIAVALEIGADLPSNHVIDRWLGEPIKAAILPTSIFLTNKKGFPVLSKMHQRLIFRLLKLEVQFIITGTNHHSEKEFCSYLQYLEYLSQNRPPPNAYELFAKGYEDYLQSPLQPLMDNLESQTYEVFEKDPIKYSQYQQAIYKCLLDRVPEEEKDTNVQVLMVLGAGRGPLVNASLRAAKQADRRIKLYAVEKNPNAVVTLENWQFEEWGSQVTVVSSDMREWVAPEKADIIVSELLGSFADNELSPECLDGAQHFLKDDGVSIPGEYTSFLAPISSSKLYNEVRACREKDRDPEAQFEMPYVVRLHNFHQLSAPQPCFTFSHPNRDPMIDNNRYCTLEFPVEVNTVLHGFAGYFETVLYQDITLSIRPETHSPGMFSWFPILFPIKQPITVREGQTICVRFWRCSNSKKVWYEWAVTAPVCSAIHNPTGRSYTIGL
T1 sequence (Q9BQA1 whole entry partner): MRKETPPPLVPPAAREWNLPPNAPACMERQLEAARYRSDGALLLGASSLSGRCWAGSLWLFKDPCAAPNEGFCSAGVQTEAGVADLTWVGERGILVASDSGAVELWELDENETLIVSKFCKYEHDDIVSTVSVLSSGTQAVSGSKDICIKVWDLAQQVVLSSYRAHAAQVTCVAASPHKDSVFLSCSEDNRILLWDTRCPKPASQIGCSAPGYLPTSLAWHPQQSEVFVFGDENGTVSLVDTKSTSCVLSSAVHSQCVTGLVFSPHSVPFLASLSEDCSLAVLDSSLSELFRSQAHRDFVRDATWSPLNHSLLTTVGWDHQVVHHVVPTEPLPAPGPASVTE

As a reminder, the IC50 is the concentration that gives 50% inhibition. `CC(=O)N1CC(Nc2cc(C(=O)NC[C@H](O)CN3CCc4cc(OCc5cnco5)ccc4C3)nc(C(C)(C)C)n2)C1` [Compound 379, (S)-6-((1-acetylazetidin-3-yl)amino)-2-(tert-butyl)-N-(2-hydroxy-3-(6-(oxazol-5-ylmethoxy)-3,4-dihydroisoquinolin-2(1H)-yl)propyl)pyrimidine-4-carboxamide]: the IC50 on PRMT5 [1] was 50 to 500 nM; in the assay on HAP1 MTAP-deleted, less than 1000 nM; with HAP1 MTAP-intact, less than 1000 nM; on PRMT5 [2], 50 to 500 nM; at PRMT5 [3] (read-out: No Co-factor IC50), 500 to 5000 nM. The “MTAP Intact/Deleted Ratio” value in the assay with HAP1 MTAP-deleted is “C* (an IC50 ratio of less than 3 fold between the IC50 in the HAP1 MTAP-intact cell line and the HAP1 MTAP-deleted cell line)”. For the same compound, the “SAM/MTA Ratio” value at PRMT5 [2] (setting [4]) is “A (a Ki ratio greater than or equal to 10 fold between the Ki in the presence of SAM and the Ki in the presence of MTA)”.

On to `CCCN(C)c1cc(C(=O)NC[C@H](O)CN2CCc3c(ccc(OCc4ocnc4C)c3C)C2)cc(NC2CCC2)n1` [Compound 480, 2-(cyclobutylamino)-N-[(2S)-2-hydroxy-3-{5-methyl-6-[(4-methyl-1,3-oxazol-5-yl)methoxy]-1,2,3,4-tetrahydroisoquinolin-2-yl}propyl]-6-[methyl(propyl)amino]pyridine-4-carboxamide], for which the IC50 at PRMT5 [1] was 50 to 500 nM; in the assay with HAP1 MTAP-deleted, not below 10000 nM; in the assay on HAP1 MTAP-intact, not below 10000 nM; at PRMT5 [2], 50 to 500 nM; at PRMT5 [3], not below 5000 nM. Moreover, the “MTAP Intact/Deleted Ratio” value in the assay on HAP1 MTAP-deleted is “C* (an IC50 ratio of less than 3 fold between the IC50 in the HAP1 MTAP-intact cell line and the HAP1 MTAP-deleted cell line)”. The “SAM/MTA Ratio” value on PRMT5 [2] (setting [5]) is “A (a Ki ratio greater than or equal to 10 fold between the Ki in the presence of SAM and the Ki in the presence of MTA)”.

Consider `Cc1ncoc1COc1ccc2c(c1C)CCN(C[C@@H](O)CNC(=O)c1cc(NC3CCC3)nc(N3CCOCC3)c1)C2` [Compound 461, 2-(cyclobutylamino)-N-[(2S)-2-hydroxy-3-{5-methyl-6-[(4-methyl-1,3-oxazol-5-yl)methoxy]-1,2,3,4-tetrahydroisoquinolin-2-yl}propyl]-6-(morpholin-4-yl)pyridine-4-carboxamide], for which the IC50 is 50 to 500 nM on PRMT5 [1]; 1000 to 10000 nM with HAP1 MTAP-deleted; not below 10000 nM in the assay with HAP1 MTAP-intact; 50 to 500 nM on PRMT5 [2]; not below 5000 nM against PRMT5 [3]. For the same compound, in the assay on HAP1 MTAP-deleted, the “MTAP Intact/Deleted Ratio” value is “B* (an IC50 ratio greater than or equal to 3 fold but lower than 10 fold between the IC50 in the HAP1 MTAP-intact cell line and the HAP1 MTAP-deleted cell line)”.

Regarding `COCCN(C)c1nc(NC2COC2)cc(C(=O)NC[C@H](O)CN2CCc3c(ccc(OCc4cnco4)c3Cl)C2)n1` [Compound 314], the IC50 at PRMT5 [1] was 50 to 500 nM; with HAP1 MTAP-deleted, 1000 to 10000 nM; with HAP1 MTAP-intact, not below 10000 nM; at PRMT5 [2] it was 50 to 500 nM; at PRMT5 [3] (read-out: No Co-factor IC50), 500 to 5000 nM. In the assay on HAP1 MTAP-deleted, the “MTAP Intact/Deleted Ratio” value was “C* (an IC50 ratio of less than 3 fold between the IC50 in the HAP1 MTAP-intact cell line and the HAP1 MTAP-deleted cell line)”. Also, the “SAM/MTA Ratio” value at PRMT5 [2] (setting [4]) was “A (a Ki ratio greater than or equal to 10 fold between the Ki in the presence of SAM and the Ki in the presence of MTA)”.

As for `O=C(NC[C@H](O)CN1CCc2c(ccc(OCc3cnco3)c2Cl)C1)c1ccnc(NC2CCC2)c1` [Compound 194, N-[(2S)-3-[5-chloro-6-(oxazol-5-ylmethoxy)-3,4-dihydro-1H-isoquinolin-2-yl]-2-hydroxy-propyl]-2-(cyclobutylamino)pyridine-4-carboxamide], the IC50 is 500 to 5000 nM at PRMT5 [1]; not below 10000 nM in the assay on HAP1 MTAP-deleted; not below 10000 nM with HAP1 MTAP-intact; 50 to 500 nM at PRMT5 [2]; not below 5000 nM at PRMT5 [3] (read-out: No Co-factor IC50). For the same compound, the “MTAP Intact/Deleted Ratio” value in the assay with HAP1 MTAP-deleted is “C* (an IC50 ratio of less than 3 fold between the IC50 in the HAP1 MTAP-intact cell line and the HAP1 MTAP-deleted cell line)”.

Regarding `CC(=O)N1CCC(Nc2cccc(C(=O)NC[C@H](O)CN3CCc4cc(OCc5cnco5)ccc4C3)c2)CC1` [Compound 527], the IC50 on PRMT5 [1] is 50 to 500 nM; in the assay with HAP1 MTAP-deleted it was 1000 to 10000 nM; in the assay on HAP1 MTAP-intact, not below 10000 nM; at PRMT5 [2], 50 to 500 nM; against PRMT5 [3], 500 to 5000 nM. For the same compound, the “MTAP Intact/Deleted Ratio” value with HAP1 MTAP-deleted was “B* (an IC50 ratio greater than or equal to 3 fold but lower than 10 fold between the IC50 in the HAP1 MTAP-intact cell line and the HAP1 MTAP-deleted cell line)”. Also, the “SAM/MTA Ratio” value on PRMT5 [2] (setting [5]) was “A (a Ki ratio greater than or equal to 10 fold between the Ki in the presence of SAM and the Ki in the presence of MTA)”.

For the compound `CC(C)N1CCN(c2cc(C(=O)NC[C@H](O)CN3CCc4cc(OCc5cnco5)ccc4C3)cc(NC3CCC3)n2)CC1` [Compound 462, (S)-2-(cyclobutylamino)-N-(2-hydroxy-3-(6-(oxazol-5-ylmethoxy)-3,4-dihydroisoquinolin-2(1H)-yl)propyl)-6-(4-isopropylpiperazin-1-yl)isonicotinamide], the IC50 on PRMT5 [1] is 50 to 500 nM; with HAP1 MTAP-deleted, not below 10000 nM; with HAP1 MTAP-intact, not below 10000 nM; on PRMT5 [2], 50 to 500 nM; against PRMT5 [3], 500 to 5000 nM. Moreover, the “MTAP Intact/Deleted Ratio” value in the assay with HAP1 MTAP-deleted was “C* (an IC50 ratio of less than 3 fold between the IC50 in the HAP1 MTAP-intact cell line and the HAP1 MTAP-deleted cell line)”. The “SAM/MTA Ratio” value at PRMT5 [2] (setting [5]) is “A (a Ki ratio greater than or equal to 10 fold between the Ki in the presence of SAM and the Ki in the presence of MTA)”.

As for `CC(=O)N1CCN(c2cc(C(=O)NC[C@H](O)CN3CCc4cc(OCc5cnco5)ccc4C3)cc(NC3CCC3)n2)CC1` [Compound 497, (S)-2-(4-acetylpiperazin-1-yl)-6-(cyclobutylamino)-N-(2-hydroxy-3-(6-(oxazol-5-ylmethoxy)-3N-dihydroisoquinolin-2(1H)-yl)propyl)isonicotinamide], the IC50 was 50 to 500 nM on PRMT5 [1]; less than 1000 nM in the assay on HAP1 MTAP-deleted; 1000 to 10000 nM in the assay with HAP1 MTAP-intact; 50 to 500 nM on PRMT5 [2]; 500 to 5000 nM at PRMT5 [3]. The “MTAP Intact/Deleted Ratio” value in the assay on HAP1 MTAP-deleted was “C* (an IC50 ratio of less than 3 fold between the IC50 in the HAP1 MTAP-intact cell line and the HAP1 MTAP-deleted cell line)”. The “SAM/MTA Ratio” value on PRMT5 [2] (setting [5]) was “A (a Ki ratio greater than or equal to 10 fold between the Ki in the presence of SAM and the Ki in the presence of MTA)”.

Take `CC(=O)N1CCC(Nc2cc(C(=O)NC[C@H](O)CN3CCc4c(ccc(OCc5cnco5)c4C)C3)ccn2)CC1` [Compound 517]: the IC50 at PRMT5 [1] was 50 to 500 nM; in the assay on HAP1 MTAP-deleted, 1000 to 10000 nM; in the assay with HAP1 MTAP-intact, not below 10000 nM; on PRMT5 [2], 50 to 500 nM; against PRMT5 [3], 500 to 5000 nM. Besides, the “MTAP Intact/Deleted Ratio” value in the assay on HAP1 MTAP-deleted was “B* (an IC50 ratio greater than or equal to 3 fold but lower than 10 fold between the IC50 in the HAP1 MTAP-intact cell line and the HAP1 MTAP-deleted cell line)”. Besides, the “SAM/MTA Ratio” value on PRMT5 [2] (setting [5]) is “A (a Ki ratio greater than or equal to 10 fold between the Ki in the presence of SAM and the Ki in the presence of MTA)”.

Take `CCN(C)c1nc(NC2COC2)cc(C(=O)NC[C@H](O)CN2CCc3cc(OCc4ocnc4C)ccc3C2)n1` [Compound 457, 2-[ethyl(methyl)amino]-N-[(2S)-2-hydroxy-3-{6-[(4-methyl-1,3-oxazol-5-yl)methoxy]-1,2,3,4-tetrahydroisoquinolin-2-yl}propyl]-6-[(oxetan-3-yl)amino]pyrimidine-4-carboxamide]: the IC50 was 50 to 500 nM on PRMT5 [1]; less than 1000 nM with HAP1 MTAP-deleted; less than 1000 nM in the assay with HAP1 MTAP-intact; 50 to 500 nM at PRMT5 [2]; 500 to 5000 nM against PRMT5 [3]. In addition, the “MTAP Intact/Deleted Ratio” value in the assay on HAP1 MTAP-deleted is “C* (an IC50 ratio of less than 3 fold between the IC50 in the HAP1 MTAP-intact cell line and the HAP1 MTAP-deleted cell line)”. In addition, the “SAM/MTA Ratio” value at PRMT5 [2] (setting [5]) was “A (a Ki ratio greater than or equal to 10 fold between the Ki in the presence of SAM and the Ki in the presence of MTA)”.

On to `Cc1ncoc1COc1ccc2c(c1Cl)CCN(C[C@@H](O)CNC(=O)c1cc(NC3CCCC3)ncn1)C2` [Compound 339, N-[(2S)-3-[5-chloro-6-[(4-methyl-1,3-oxazol-5-yl)methoxy]-1,2,3,4-tetrahydroisoquinolin-2-yl)-2-hydroxypropyl]-6-(cxclopentylamino)pyrimidine-4-carboxamide], for which the IC50 on PRMT5 [1] was 500 to 5000 nM; in the assay with HAP1 MTAP-deleted, not below 10000 nM; in the assay with HAP1 MTAP-intact, not below 10000 nM; at PRMT5 [2], 50 to 500 nM; at PRMT5 [3] (read-out: No Co-factor IC50), not below 5000 nM. In addition, the “MTAP Intact/Deleted Ratio” value in the assay on HAP1 MTAP-deleted is “C* (an IC50 ratio of less than 3 fold between the IC50 in the HAP1 MTAP-intact cell line and the HAP1 MTAP-deleted cell line)”. Also, the “SAM/MTA Ratio” value on PRMT5 [2] (setting [4]) was “A (a Ki ratio greater than or equal to 10 fold between the Ki in the presence of SAM and the Ki in the presence of MTA)”.

As for `O=C(NC[C@H](O)CN1CCc2cc(OCc3cnco3)ccc2C1)c1ccc(OC2CCN(Cc3ccccc3)CC2)cc1` [Compound 291, (S)-4-((1-benzylpiperidin-4-yl)oxy)-N-(2-hydroxy-3-(6-(oxazol-5-ylmethoxy)-3,4-dihydroisoquinolin-2(1H)-yl)propyl)benzamide], the IC50 is 50 to 500 nM on PRMT5 [1]; 1000 to 10000 nM in the assay on HAP1 MTAP-deleted; 1000 to 10000 nM in the assay on HAP1 MTAP-intact; 50 to 500 nM at PRMT5 [2]; 500 to 5000 nM at PRMT5 [3] (read-out: No Co-factor IC50). Further, the “MTAP Intact/Deleted Ratio” value in the assay with HAP1 MTAP-deleted was “C* (an IC50 ratio of less than 3 fold between the IC50 in the HAP1 MTAP-intact cell line and the HAP1 MTAP-deleted cell line)”.
